pKi: −log10 of the molar value. Structures can show the parent of a compound that is named as a salt.
Columns and labels:
[1] = system: rats; conditions: cited from earlier work
[2] = system: nicotinic and muscarinic receptors; conditions: cited from earlier work
[3] = biological target: muscarinic receptors; test: Inhibition of 3H-oxotremorine-M binding to hippocampal membranes; conditions: [3H]oxotremorine ([3H]OXO) binding, muscarinic receptor affinity, rat membranes
Description: The hippocampus from male Sprague-Dawley rats was homogenized in 10 volumes of 0.32 M sucrose, centrifuged at 1000 x g for 10 min, and the supernatant was centrifuged at 17,000 x g for 20 min. The synaptosoma! fraction (P₂) pellet was homogenized in 50 volumes of 20 mM Tris-Cl buffer, pH 7.4, and centrifuged at 50,000 x g for 10 min. After resuspension in buffer, the suspension was preincubated for 30 min at 4 °C, and centrifuged again. The pellet was resuspended in 3 volumes of buffer and frozen at -70 °C until used.
For oxotremorine-M binding, the homogenates were incubated at 25 °C for 15 min. After incubation, the homogenates were filtered through Whatman GF/C filters with vacuum. The filters were rinsed 3X with 1 mL of cold buffer and placed in scintillation vials containing Ready Protein+ (Beckman) scintillation fluid. Radioactivity trapped on the filters was determined by liquid scintillation spectrometry. Non specific binding was determined using 1 µM atropine.
The concentration of compound required to inhibit binding 50% (IC₅₀) was calculated using the ALLFIT program.

[4] = biological target: nicotinic receptors (Rattus norvegicus, UniProt P09483+P12390); test: [3H]N-methyl-carbamyl choline ([3H]MCC) binding to rat brain cortical membranes; conditions: selectivity for nicotinic over muscarinic receptors
Description: Binding to rat brain nicotinic receptors was performed using the method of Abood and Grassi. Abood, L.E. et al., Biochem. Pharmacol. 35:4199-4202 (1987). Frozen rat brain cortices (Pel-Freez Biologicals, Roger, AR) were homogenized using a Polytron (Binkmann PT-10; setting 6 for 15 sec) in 30 volumes of buffer (50 mM tris, 120 mM sodium chloride, 5 mM potassium chloride, 2 mM calcium chloride, 1 mM magnesium chloride, pH 7.3 at 4°C). The homogenate was centrifuged at 1,000 xg for 10 min. (Sorval RC-5B; SA600 rotor). The supernatant was then centrifuged at 40,000 xg for 20 min. The final pellet was resuspended in buffer at a concentration of 12 vol./gram wet weight of tissue. Final protein concentrations for each assay were determined using the Lowry et al. method. Lowry, O.H. et al., J. Biol. Chem. 193:265-275 (1951).
[³H]N-Methyl-carbamyl choline iodide ([³H]MCC) binding to rat cortices was measured by filtration. Compounds dissolved in distilled water at concentrations of 1 nM to 1 mM, were incubated with [³H]MCC (1 nM), membrane aliquots (approximately 1.5 mg./ml. protein) and buffer, in a final volume of 0.5 ml. […] Nonspecific [³H]MCC binding was determined in the presence of 10 mM nicotine. […]
Radioactivity bound was determined after a period of equilibration (at least 5 hr) in Beckman Ready Protein Scintillation Cocktail using a Beckman LS5000 TA counter with an efficiency of 43%. […]

nicotinic receptors, sequence (P09483 31-630): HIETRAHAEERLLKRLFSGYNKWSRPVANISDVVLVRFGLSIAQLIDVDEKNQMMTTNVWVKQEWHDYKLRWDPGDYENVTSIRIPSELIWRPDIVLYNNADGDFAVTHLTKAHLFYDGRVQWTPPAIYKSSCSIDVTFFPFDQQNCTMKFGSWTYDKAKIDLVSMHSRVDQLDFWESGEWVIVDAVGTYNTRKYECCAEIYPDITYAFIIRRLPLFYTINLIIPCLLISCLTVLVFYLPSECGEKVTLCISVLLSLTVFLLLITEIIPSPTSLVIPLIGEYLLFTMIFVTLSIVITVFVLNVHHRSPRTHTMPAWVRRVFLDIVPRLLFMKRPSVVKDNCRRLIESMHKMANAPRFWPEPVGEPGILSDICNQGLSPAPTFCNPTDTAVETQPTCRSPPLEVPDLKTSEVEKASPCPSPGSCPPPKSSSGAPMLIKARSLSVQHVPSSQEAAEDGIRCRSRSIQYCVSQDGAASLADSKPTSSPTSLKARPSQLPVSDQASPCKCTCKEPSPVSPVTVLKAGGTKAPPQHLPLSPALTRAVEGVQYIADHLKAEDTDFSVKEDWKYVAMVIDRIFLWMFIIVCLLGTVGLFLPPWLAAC
nicotinic receptors, sequence (P12390 25-500): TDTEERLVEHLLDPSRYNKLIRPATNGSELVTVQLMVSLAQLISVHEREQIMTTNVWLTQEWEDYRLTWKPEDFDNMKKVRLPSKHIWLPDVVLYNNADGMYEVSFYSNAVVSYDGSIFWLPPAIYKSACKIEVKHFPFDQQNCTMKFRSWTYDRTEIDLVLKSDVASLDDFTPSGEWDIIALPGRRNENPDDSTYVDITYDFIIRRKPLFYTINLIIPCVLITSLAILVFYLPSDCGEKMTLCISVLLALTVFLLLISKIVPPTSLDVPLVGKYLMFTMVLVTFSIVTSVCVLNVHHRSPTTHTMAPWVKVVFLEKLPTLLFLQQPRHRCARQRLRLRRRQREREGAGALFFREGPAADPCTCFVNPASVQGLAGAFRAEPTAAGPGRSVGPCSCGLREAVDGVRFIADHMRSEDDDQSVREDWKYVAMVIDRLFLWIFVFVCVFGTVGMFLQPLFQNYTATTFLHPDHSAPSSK

| Compound | nicotine-like discriminative stimulus effects [1] | agonist which binds to nicotinic and muscarinic receptors [2] | pKi [3] | Ki Ratio OXO/MCC [4] |
| --- | --- | --- | --- | --- |
| 1-methyl-4-acetyl-1,2,3,6-tetrahydropyridine [isoarecolone methiodide] | produce nicotine-like discriminative stimulus effects | very potent agonist | – | – |
| CC(=O)C1=CCN(C)CC1 [isoarecolone HCl] | produce nicotine-like discriminative stimulus effects | – | – | – |
| CN1CC=C(C(=O)C(C)(C)C)CC1 [Example 12, 1-(1,2,3,6-Tetrahydro-1-methyl-4-pyridinyl)-2,2-dimethylpropanone] | – | – | 5.20 | 110 |
| CCC(C)C(=O)C1=CCN(C)CC1 (stereo not drawn) [Example 11, 1-(1,2,3.6-Tetrahydro-1-methyl-4-pyridinyl)-2-methylbutanone] | – | – | 5.32 | – |

Source: patent publication EP0537993A1, “Nicotinic activity of a series of arecolones and isoarecolones” (ELI LILLY AND COMPANY, priority 1991, dated 1993)
